Values joined by “and” are separate entries in the source; they are usually repeats but may differ in a detail not shown here. Identical values can stand only once. “Also recorded” adds a separate entry of the source. Like-named read-outs stand apart in the source and are kept apart here.
Assays:
[1] = pharmacokinetics and metabolism in animals; format: in vivo, rats and monkeys
From the text: (§1) Exposure increased more than dose-proportionally at low doses. Variability in exposure was high. • In vitro plasma protein binding was between 79.6% and 94.2% in animals and humans. Volume of distribution after intravenous dosing was high. […] Main metabolic pathways were oxygenation, hydrogenation, dehydrogenation, dealkylation, acetylation, glucuronidation, and/or glutathione conjugation. • In rats, >80% of drug-related material was found in feces, 11% to 20% in bile, and <4% in urine. […] There were no effects on embryofetal development up to 1 mg/kg/dose in rats and 30 mg/kg/dose in rabbits.

HBV-infected PHHs = experiment: antiviral activity of compound-stimulated human whole blood and PBMC supernatant in HBV-infected PHHs; format: cell-based
HBV = experiment: anti-HBV activity in vivo in AAV/HBV mice; conditions: 20 mg/kg
[2] = Phase 1 single oral dose pharmacokinetics in healthy adults; format: in vivo; conditions: for AUC(0-t): read-out: AUC24 h
Protocol: This ongoing trial is a Phase 1 randomized, double-blind, placebo-controlled study in male and female healthy adult volunteers aged 18-55 years. All volunteers provided written, informed consent. For the SAD phase, 8-10 volunteers per cohort were randomized 6-8:2 to receive a single oral dose of either Compound 4 0.2 (N=6), 0.6 (N=6), 1.25 (N=8) or 1.8 mg (N=6) or placebo (N=2/dose group) under fasted conditions; following an ˜6-week washout period, the cohort subjects which had received 1.25 mg under fasted conditions in Cohort 4 were given the same 1.25 mg dose (N=7) under fed conditions (a standard meal consumed before dosing), in Cohort 6 (FIG. 1). Escalation of the Compound 4 dose was only permitted following a review of the safety and PK data from the previous cohort.
Following a single dose of Compound 4, intensive blood samples were collected over the first 24 hours, samples were then collected daily through Day 7, and weekly samples were collected through Day 35. Plasma concentrations of Compound 4 were evaluated using a validated liquid chromatography with tandem mass spectrometry method; the lower limit of quantification was 1 pg/mL. PK parameters were estimated using non-compartmental analysis (WinNonlin®, Certara, Princeton, NJ, USA). Descriptive statistics were used to summarize plasma concentrations and derived PK parameters of Compound 4. The impact of food on PK parameters was analyzed using geometric least square mean point estimates (mixed-effects model on log-transformed values with treatment as fixed effect and subject as a random effect).

[3] = embryofetal development in rabbits; format: in vivo
From the text: as §1

BCS classification = format: physicochemical; conditions: high solubility, low permeability
Protocol: AUC48h was approximately 17% (95% Cl: 65.89-105.71%) lower in fed condition compared with fasted. These differences are aligned with BCS Class 3 (high solubility, low permeability) compound properties.

genotoxic potential = experiment: genotoxic potential
From the text: as §1

[4] = pharmacokinetics in monkey; conditions: in vivo, po
From the text: as §1

[5] = both sexes, human, plasma, oral, 0.2 mg, single dose 0.2 mg fasted, mean ± SD
[6] = both sexes, human, plasma, oral, 0.6 mg, single dose 0.6 mg fasted, mean ± SD
[7] = both sexes, human, plasma, oral, 1.25 mg, single dose 1.25 mg fasted, mean ± SD
[8] = both sexes, human, plasma, oral, 1.25 mg, single dose 1.25 mg fed, mean ± SD
[9] = both sexes, human, plasma, oral, 1.8 mg, single dose 1.8 mg fasted, mean ± SD

With CCCCOc1nc(N)c2[nH]cc(Cc3ccc(CN4CCCC4)cc3)c2n1 [Compound 4] the blood clearance ([1]; in vivo) was “moderate”, the volume of distribution ([1]; intravenous dosing) was “high” and the tissue distribution ([1]; oral dosing in rats and monkeys) was “highest levels in liver, small intestines and brain”. For the same compound, the half-life ([1]; rat, monkey, in vivo) was 300 to 840 min, the Tmax ([1]; rat, monkey, in vivo, oral dosing) was 48 to 120 min and the “anti-HBV activity target concentration in vitro” value (HBV-infected PHHs) was 3.3 nM. For the same compound, the “maximum decline of HBV DNA compared to DMSO controls” value (HBV-infected PHHs; 3.3 nM) was 1.5 log 10, the “maximum decline of HBV RNA compared to DMSO controls” value (HBV-infected PHHs; 3.3 nM) was 1.1 log 10 and the “maximum decline of HBeAg compared to DMSO controls” value (HBV-infected PHHs; 3.3 nM) was 1.3 log 10. The “maximum decline of HBsAg compared to DMSO controls” value (HBV-infected PHHs; 3.3 nM) was 0.4 log 10, the HBsAg seroconversion (HBV) was “in all animals” and the HBsAg serum levels (HBV) was “undetectable”. The “time post-treatment reductions in HBsAg levels were sustained” value (HBV) was “up to 3 weeks”, the “least square mean ratio point estimate of AUC48h, fed vs fasted” value ([2]; 1.25 mg, 90% CI 65.89-105.71) was 83.45 and the “Predose Level” value ([2]; before 1.25 mg fed dose, on average 41 days after 1.25 mg fasted dose, mean ± SD) was 1.85 pg/mL and 1.85 ± 0.597 pg/mL. It also gave a Cmax [2, 5] of 0.0344 ± 0.0179 ng/mL, an AUC(0-t) [2, 5] of 0.19 ± 0.0972 ng·h/mL and a Tmax ([2]; both sexes, human, plasma, oral, 0.2 mg, single dose 0.2 mg fasted, median (range), read-out: tmax) of 30 min. For the same compound, the Cmax [2, 6] was 0.109 ± 0.0281 ng/mL, the AUC(0-t) [2, 6] was 0.594 ± 0.21 ng·h/mL and the Tmax ([2]; both sexes, human, plasma, oral, 0.6 mg, single dose 0.6 mg fasted, median (range), read-out: tmax) was 30 min. It also gave a Cmax [2, 7] of 0.143 ± 0.0659 ng/mL, an AUC(0-t) [2, 7] of 0.815 ± 0.251 ng·h/mL and a Tmax ([2]; both sexes, human, plasma, oral, 1.25 mg, single dose 1.25 mg fasted, median (range), read-out: tmax) of 45 min. For the same compound, the Cmax [2, 8] was 0.152 ± 0.0764 ng/mL, the AUC(0-t) [2, 8] was 0.659 ± 0.194 ng·h/mL and the Tmax ([2]; both sexes, human, plasma, oral, 1.25 mg, single dose 1.25 mg fed, median (range), read-out: tmax) was 30 min. For the same compound, the Cmax [2, 9] was 0.309 ± 0.136 ng/mL, the AUC(0-t) [2, 9] was 1.37 ng·h/mL and the Tmax ([2]; both sexes, human, plasma, oral, 1.8 mg, single dose 1.8 mg fasted, median (range), read-out: tmax) was 30 min. It also gave a concentration at 41 days ([2]; both sexes, human, plasma, oral, before 1.25 mg fed dose, on average 41 days after 1.25 mg fasted dose, mean ± SD, read-out: Predose Level) of 0.00185 ng/mL, a CL renal ([2]; both sexes, human, plasma, oral, single dose 1.25 mg fasted, range 1.86-3.81, read-out: mean renal clearance (converted)) of 42.8 mL/min and a Tmax ([2]; both sexes, human, plasma, po, single oral doses 0.2 to 1.8 mg, read-out: tmax, range over doses) of 30 to 60 min. The half-life ([2]; both sexes, human, plasma, single oral doses 0.2 to 1.8 mg, read-out: median t1/2 term, range over doses) was 5.25 to 36.2 days, the t1/2term ([2]; single dose 0.2 mg fasted, median (range)) was 150 (126-212) h and the CL/F ([2]; single dose 0.2 mg fasted, n = 1) was 149 L/h. The t1/2term ([2]; single dose 0.6 mg fasted, median (range)) was 284 (104-479) h, the CL/F ([2]; single dose 0.6 mg fasted, n = 1) was 244 L/h and the “excreted as unchanged drug in urine within the first 24 hours” value ([2]; single dose 1.25 mg fasted) was “less than 0.2%”. For the same compound, the t1/2term ([2]; single dose 1.25 mg fasted, median (range)) was 448 (372-502) h, the CL/F ([2]; single dose 1.25 mg fasted, n = 3) was 254 L/h and the t1/2term ([2]; single dose 1.25 mg fed, median (range)) was 591 (448-868) h. The t1/2term ([2]; single dose 1.8 mg fasted, median (range)) was 194 (185-205) h, the “dose proportionality of exposure” value ([2]; single oral doses 0.2 to 1.8 mg fasted) was “increased in proportion with the dose; also recorded: dose-proportional pharmacokinetics” and the “dose without effects on embryofetal development” value [3] was ≤ 30 mg/kg/dose. The BCS class (BCS classification) was “BCS Class 3”, the genotoxic potential (genotoxic potential) was “free of genotoxic potential” and the bioavailability [4] was 1.5%.

— patent publication US12263172B2, “Toll-like receptor agonists for use in the treatment of hepatitis b” (priority 2019, dated 2025)
